# Reference: US20090137034A1, “METHODS FOR PERFUSION AND PLATING OF PRIMARY HEPATOCYTES AND A MEDIUM THEREFORE” (MASSACHUSETTS INSTITUTE OF TECHNOLOGY, priority 2002, published 2009)
# What was measured:
# CYP 1A1 = CYP 1A1 inducibility/P450 function in primary hepatocytes in collagen sandwich culture (EROD assay, 3-MC induction); type: cell-based; details: mechanism under investigation
# Method: To study the effect of different compounds on the function of hepatocyte function and phenotype, hepatocytes were isolated according to techniques well known in the art and cultured in a collagen sandwich configuration. Hepatocytes were induced with the addition of 2 nM 3-methylcholanthrene (3-MC). CYP 1A1 was measured using the EROD assay as described in Pearce et al., 1996. Albumin secretion was measured using ELISA, as described in Dunn et al., 1991. Western blot analysis was performed using techniques well known in the art, using an antibody to CYP1A1.
# activated macrophages = details: stated as an observation, no source given; cited from earlier work
smiles,measurement,setting,value
N[C@H]1C(O)O[C@H](CO)[C@@H](O)[C@@H]1O (some centres unmarked) [glucosamine],P450 function,CYP 1A1,protection of P450 function
same,NO synthesis,activated macrophages,inhibits NO synthesis
